# Active and inactive are the calls of the source.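 How the source made its calls: active means Compounds that kill half the cells at a concentration of 5 micromolar or below, from the fitted or estimated CC50; inactive means CC50 above 5 micromolar.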
# System: Jurkat E6.1 viability, ATP luminescence, 48 h
# Experiment: Jurkat E6.1 cell cytotoxicity, CC50 determination, dose response, cytotoxicity control, ATP luminescence, 48 h, 60K MLSMR (AID 464)
row,SMILES,CC50
1,Cc1ccc(C)c(S(=O)(=O)Nc2ccc3scnc3c2)c1,3080 nM
2,Cc1nc(C)c(C(=O)Nc2ccc(Oc3ccccc3)cc2)o1,19400 nM (inactive)
3,CCOc1ccccc1C(=O)N1CCN(c2cccc(Cl)c2)CC1,95 nM
4,COc1ccccc1N1CCN(C(=O)C2c3ccccc3Oc3ccccc32)CC1,1270 nM
5,COC(=O)c1sc(N)c(C(=O)OC)c1COC(=O)c1c(C)noc1C,2350 nM
6,COC(=O)c1[nH]c2c(c1C)C(=O)CC(c1cccs1)C2 (stereo unspecified),677 nM
7,O=c1cc(-c2ccccc2)[nH]c2ccccc12,373 nM
8,O=C(Cc1cccs1)Nc1nc2c(s1)CCCC2,> 40000 nM (inactive)
9,CC(C)c1cc(C(=O)Nc2sc3c(c2C#N)CCC3)no1,15600 nM (inactive)
10,CCOC(=O)c1c(C)c(C(=O)Nc2cc(F)ccc2F)c(C)n1C,6520 nM (inactive)
11,Cc1sc(NC(=O)c2ccco2)nc1-c1ccc2c(c1)CC(C)N2C(=O)C1CC1 (stereo unspecified),16300 nM (inactive)
12,Cc1nc2ccccn2c1-c1csc(NCc2ccco2)n1,> 40000 nM (inactive)
13,Cc1ccc(C2NC(=O)c3ccccc3N2)s1 (stereo unspecified),4160 nM
14,Clc1ccc(CCNc2ncnc3nc[nH]c23)cc1,19600 nM (inactive)
15,Cn1c(-c2ccccc2)cc2c3no[n+]([O-])c3ccc21,2410 nM
16,CCCCN(C)S(=O)(=O)c1ccc(C(=O)Nc2nnc(CSC)o2)cc1,27900 nM (inactive)
17,Nc1ccc(N2CCCCCC2)cc1,26300 nM (inactive)
18,O=C(CSC1=NCCS1)Nc1ccnc2ccccc12,> 40000 nM (inactive)
19,Cc1cc(NC(=O)CSc2nc(-c3ccco3)cc(C(F)(F)F)n2)no1,233 nM
20,CCc1ccc(CNc2ccc(O)cc2)cc1,> 40000 nM (inactive)
21,COc1cc(NS(=O)(=O)c2ccc(C)cc2)c2ncccc2c1,10100 nM (inactive)
22,CCOC(=O)c1[nH]c(C)c(C(=O)Nc2cc(OC)ccc2OC)c1C,458 nM
23,CC(C)C(=O)NC(c1ccco1)c1ccc2cccnc2c1O (stereo unspecified),2890 nM

row,SMILES,CC50
1,Cc1cccc(-n2ncc3c(NCc4ccccc4)ncnc32)c1,3860 nM
2,COc1cc(NC(=O)c2ccc3c(c2)OCO3)ccc1NC(=O)C(C)C,2200 nM
3,CN(C)c1ccc2c(c1)OC(N)=C(C#N)C2c1cccc(F)c1 (stereo unspecified),106 nM
4,Cc1cc(C)n2nc(SCC(=O)c3cc(C)n(-c4cc(C)on4)c3C)nc2n1,29400 nM (inactive)
5,O=C(c1ccncc1)N(Cc1cc2ccccc2[nH]c1=O)C1CCCCC1,5310 nM (inactive)
6,COc1cc(NS(=O)(=O)c2ccc(OC)c(C)c2C)c(OC)cc1Cl,1620 nM
7,CC(C)Oc1ccccc1C1CC(=O)Nc2cc3c(cc21)OCCO3 (stereo unspecified),576 nM
8,COc1ccccc1-c1cc(C(F)(F)F)nc(S(=O)(=O)CCCC(=O)N2CCOCC2)n1,2220 nM
9,O=C1CN=C(c2cccs2)c2c(sc3c2CCCC3)N1,7460 nM (inactive)
10,COc1ccc2c(c1)sc1nc(-c3ccccc3)cn12,750 nM
11,O=C(c1ccc(F)cc1)C(CN1CCOCC1)c1ccccc1 (stereo unspecified),5530 nM (inactive)
12,CC1(C)Cc2nc3sc4c(SCC(=O)NCc5ccco5)ncnc4c3cc2CO1,18000 nM (inactive)
13,COc1ccc(Cl)cc1S(=O)(=O)n1cnc2ccccc21,> 40000 nM (inactive)
14,Cc1nn(C)c(C)c1CNC(=O)c1nn2c(c1Cl)NC(c1cccs1)CC2C(F)(F)F (stereo unspecified),15200 nM (inactive)
15,Cc1cc2c(N=O)c(NO)ccc2[nH]1,1970 nM
16,N=c1c2c(n(Cc3ccccc3)c3c1CCC3)CCC2,3660 nM
17,CCOC(=O)C1=C(CNCc2ccc(C)cc2)NC(=O)NC1c1ccc(OC)cc1 (stereo unspecified),> 40000 nM (inactive)
18,CCOC(=O)c1ccccc1NC(=O)Cn1c(-c2nonc2N)nc2ccccc21,296 nM
19,Cc1cnc(C(=O)Nc2cccc3cccnc23)cn1,803 nM
20,Cc1cc2c(cc(C(=O)OCC(=O)NCc3cccs3)n2C(C)C)o1,837 nM
21,CC1CN(S(=O)(=O)c2ccc(NC(=O)c3cc(-c4ccccc4O)n[nH]3)cc2)CC(C)O1 (stereo unspecified),> 13000 nM (inactive)
22,CCN(CC)C(=O)C1CCCc2c1[nH]c1ccc(Cl)cc21 (stereo unspecified),> 40000 nM (inactive)
23,CCN(CC)c1ccc2c(c1)OC(N)=C(C#N)C2c1cccnc1 (stereo unspecified),19.2 nM

row,SMILES,CC50
1,O=C(c1cccc(C(=O)N2CCN(c3ccc(F)cc3)CC2)c1)N1CCN(c2ccc(F)cc2)CC1,> 40000 nM (inactive)
2,CCOC(=O)c1[nH]c(C)c(C(=O)Nc2ccccc2C)c1C,630 nM
3,COc1cc(NC(=O)c2cc(-c3cccs3)on2)cc(OC)c1OC,12800 nM (inactive)
4,COc1cc2c(cc1OC)CN(C(=O)c1cc3ccccc3oc1=O)CC2,5040 nM (inactive)
5,CCOC(=O)N1CCN(S(=O)(=O)c2ccc(C(=O)Nc3ccc(F)cc3F)cc2)CC1,1090 nM
6,COc1ccccc1-n1cnc(N)c1C(=O)c1ccccc1,> 4400 nM (inactive)
7,c1ccc(CNc2ncnc3ccccc23)cc1,4680 nM
8,COc1cc(C(=O)N2CCN(c3ncnc4sc(C)c(C)c34)CC2)cc(OC)c1OC,2360 nM
9,Cc1cc(NC(=O)CSc2nnc3c(C)cc4c(C)ccc(C)c4n23)no1,3830 nM
10,COc1ccccc1N1CCN(Cc2cc(Br)c(O)c3ncccc23)CC1,7730 nM (inactive)
11,COc1cccc(C(=O)Nc2ncc3c(n2)CC(c2ccc(OC)cc2OC)CC3=O)c1 (stereo unspecified),8190 nM (inactive)
12,CCOC(=O)CCS(=O)(=O)c1nc(-c2ccccc2)cc(C(F)(F)F)n1,4580 nM
13,Cc1ccc(C)c2[nH]c(=O)c(CN(CCN3CCCC3)C(=O)Nc3cccc(Cl)c3)cc12,> 40000 nM (inactive)
14,On1onc2c3cc(-c4ccccc4)nc3ccc21,3900 nM
15,O=C(Nc1nc(-c2ccccn2)cs1)c1ccc(S(=O)(=O)N2CCCCC2)cc1,8990 nM (inactive)
16,O=C(Nc1ccc(N2CCCCC2)c(Cl)c1)c1cccnc1,> 40000 nM (inactive)
17,CN(C)c1ccccc1C(=O)c1ccccc1N(C)C,743 nM
18,N#CC(C#N)=c1ccc2c(c1)NC1(CCCCC1)N=2,8080 nM (inactive)
19,NS(=O)(=O)c1ccc(CCNc2ncnc3sccc23)cc1,3370 nM
20,CN1c2ccccc2C(C)(C)C12C=Cc1cc(O)ccc1O2 (stereo unspecified),10400 nM (inactive)
21,COc1ccc(C(O)c2nc3ccccc3n2C)cc1OC (stereo unspecified),5830 nM (inactive)
22,O=C(Cn1cnc2c(cnn2-c2ccc(F)cc2)c1=O)NCc1ccco1,> 4400 nM (inactive)
23,CCCS(=O)(=O)c1nnnn1-c1cccc(OC)c1,1730 nM

row,SMILES,CC50
1,O=C(NC1CC1)c1cc2c(s1)-c1ccccc1OC2,15600 nM (inactive)
2,CCOC(=O)C(C)Sc1nc2c(cnn2-c2ccc(C)cc2)c(=O)[nH]1 (stereo unspecified),> 40000 nM (inactive)
3,COc1cccc(C2=CC(c3cc(OC)ccc3OC)n3nnnc3N2)c1 (stereo unspecified),11700 nM (inactive)
4,COc1cccc(OC)c1-c1nn2c(-c3cc(-c4ccccc4)n[nH]3)nnc2s1,8600 nM (inactive)
5,COc1cccc(OCc2nc3ncc(Br)cc3[nH]2)c1,1120 nM
6,Nc1c(C(=O)NCc2ccccc2)nnn1Cc1cccc(Cl)c1,4490 nM
7,O=C(CCc1ccccc1)Nc1ccc(Cl)cn1,2150 nM
8,O=C(CSc1nnnn1C1CC2CCC1C2)Nc1ccnc2ccccc12 (stereo unspecified),92 nM
9,O=C(CCCCn1c(=O)c2ccccc2n(Cc2ccc(F)cc2)c1=O)NCc1ccco1,9140 nM (inactive)
10,Cc1cc(C)cc(NC2=NC3(CCCCC3)N=C(N)N2)c1,4970 nM
11,COC(=O)c1ccc(Oc2cc(C)nc(-n3nc(C)cc3C)n2)cc1,112 nM
12,COc1ccccc1-n1nnnc1S(=O)(=O)Cc1ccc(Cl)cc1,3300 nM
13,c1ccc(-c2nc(N3CCCCCC3)c3ccccc3n2)nc1,10100 nM (inactive)
14,COc1ccc(Nc2oc(-c3ccccc3Cl)nc2C#N)cc1,1420 nM
15,CCCCCOC(=O)c1[nH]c2c(c1C)C(=O)CC(c1ccco1)C2 (stereo unspecified),84 nM
16,CC(C)c1cc(C(=O)Nc2cc(Cl)ccc2O)no1,> 40000 nM (inactive)
17,Cc1ccc(C)c(-n2nnnc2Sc2nnnn2-c2ccccc2)c1,5870 nM (inactive)
18,Cc1noc(C)c1CSc1nc2ccccc2c(=O)n1-c1ccccc1,2280 nM
19,COC(=O)c1[nH]c2c(c1C)C(=O)CC(c1cc(OC)ccc1OC)C2 (stereo unspecified),3890 nM
20,Cc1noc(C)c1CSc1nc2[nH]ncc2c(=O)n1-c1ccccc1,188 nM
21,CCOc1cc(N2CCOCC2)c(OCC)cc1NS(=O)(=O)c1ccc(Cl)s1,1840 nM
22,Cc1ccc2c(CC(=O)NCc3ccco3)coc2c1C,7990 nM (inactive)
23,Cc1ccc2[nH]c(=O)c(CN(Cc3ccco3)C(=O)c3ccncc3)cc2c1,6520 nM (inactive)

row,SMILES,CC50
1,COc1cc(C(=O)N2CCN(c3cc(Cl)ccc3Cl)CC2)cc(OC)c1OC,134 nM
2,Cc1oc(-c2ccccc2Cl)nc1CSCC(=O)N1CCCC1,> 40000 nM (inactive)
3,O=C(Nc1nc(-c2nc3ccccc3s2)cs1)c1ccc(S(=O)(=O)N2CCOCC2)cc1,> 40000 nM (inactive)
4,COc1ccc(C)c(Cn2c(-c3nonc3N)nc3ccccc32)c1,1970 nM
5,COc1ccc(CCNc2ncnc3c2oc2ccccc23)cc1OC,2720 nM
6,CCOc1ccc(-c2cc(CCCC(=O)Nc3cccc(OC)c3)no2)cc1,809 nM
7,CC1=C(C)CS(=O)N(S(=O)(=O)c2ccc(Cl)cc2)C1 (stereo unspecified),2960 nM
8,COc1cc(NS(=O)(=O)c2ccc3c(c2)oc(=O)n3C)cc(OC)c1OC,5880 nM (inactive)
9,Fc1ccc(Br)cc1C1C=C(c2cccnc2)Nc2ncnn21 (stereo unspecified),8760 nM (inactive)
10,O=C(Cc1ccc(-n2cccc2)cc1)NCc1cccs1,513 nM
11,COc1ccc(C2=NOC(C(=O)NCc3ccccc3)C2)cc1 (stereo unspecified),3260 nM
12,O=c1c2ccccc2nnn1CSc1nnc(-c2cccs2)n1Cc1ccccc1,> 40000 nM (inactive)
13,N=c1c2c(-c3ccccc3)c(-c3ccccc3)n(Cc3ccco3)c2ncn1Cc1ccco1,23700 nM (inactive)
14,CCOC(=O)C1=C(N)n2c(s/c(=C\c3ccco3)c2=O)=C(C(=O)OCC)C1c1ccco1 (stereo unspecified),6770 nM (inactive)
15,O=S1(=O)C=C(Sc2nc3cc(Cl)ccc3o2)c2ccccc21,9930 nM (inactive)
16,Cc1cc(NC(=O)CSc2nc(-c3cccs3)cc(C(F)(F)F)n2)no1,264 nM
17,CCOC(=O)C1CCCN(C(=O)c2cc3c(-c4cccc(OC)c4)nn(C)c3s2)C1 (stereo unspecified),9760 nM (inactive)
18,CC(=O)c1cn(CC(=O)Nc2ccccc2)c2ccccc12,12600 nM (inactive)
19,Cn1ncnc2c(=O)n(C)c(=O)nc1-2,2060 nM

# Source: PubChem BioAssay AID464 (The Scripps Research Institute Molecular Screening Center, 2006)
